Patent US20240279249A1, “Compound, Coating Composition Comprising Same, Organic Light-Emitting Device Using Same, and Manufacturing Method Therefor” (LG Chem, Ltd., priority 2021, published 2024)
Where two headings read alike, the source gives them in different places.

Experiments:
[1] = Film retention rate / solvent resistance: UV-vis absorption of heat-treated film after immersion in cyclohexanone; format: physicochemical; settings: film from 4 wt % solution in cyclohexanone, 100 nm on quartz, heat-treated 190° C. to 200° C. in nitrogen 30 minutes, immersed in cyclohexanone 10 minutes; higher absorbance = more film retained
Experimental: Thereafter, after the substrate was heat-treated at a temperature of 190° C. to 200° C. in a nitrogen atmosphere for 30 minutes, the UV-vis absorption spectrum was measured. Subsequently, the same sample was immersed in cyclohexanone for 10 minutes and remove, the solvent was dried from the sample, and then the UV-vis absorption spectrum was also measured.
In the process of manufacturing the device, the film is retained while being cured during the heat treatment. The higher absorbance means that a relatively more residue remains on the film.

[2] = Solubility at 5 wt % relative to each solvent
Excerpt: In a solution process organic light emitting device, when an ink solvent is selected for the process, the ink solvent needs to dissolve both a host and a dopant.

[3] = 5 wt % relative to solvent, Acetone
[4] = 5 wt % relative to solvent, Dichloromethane
[5] = 5 wt % relative to solvent, Toluene

Compound	Absorbance @ 350 nm [1]	also measured
C=Cc1ccc([B-](c2c(F)c(F)c(C(F)(F)F)c(F)c2F)(c2c(F)c(F)c(C(F)(F)F)c(F)c2F)c2c(F)c(F)c(C(F)(F)F)c(F)c2F)cc1.Cc1ccc([I+]c2ccc(C(C)C)cc2)cc1 [Comparative Compound 1, (4-isopropylphenyl) (p-tolyl) iodonium tris(2,3,5,6-tetrafluoro-4-(trifluoromethyl)phenyl) (4-vinylphenyl)borate, reference compound]	0.483	–
C=Cc1c(F)c(F)c([B-](c2c(F)c(F)c(C(F)(F)F)c(F)c2F)(c2c(F)c(F)c(C(F)(F)F)c(F)c2F)c2c(F)c(F)c(C(F)(F)F)c(F)c2F)c(F)c1F.Cc1ccc([I+]c2ccc(C(C)C)cc2)cc1 [Comparative Compound 2, (4-isopropylphenyl) (p-tolyl)iodonium tris(2,3,5,6-tetrafluoro-4-(trifluoromethyl)phenyl) (2,3,5,6-tetrafluoro-4-vinylphenyl) borate, reference compound]	0.526	–
Cc1ccc([I+]c2ccc(C(C)C)cc2)cc1.Fc1c(F)c([B-](c2c(F)c(F)c(C(F)(F)F)c(F)c2F)(c2c(F)c(F)c(C(F)(F)F)c(F)c2F)c2c(F)c(F)c(C(F)(F)F)c(F)c2F)c(F)c(F)c1-c1ccc2c(c1)CC2 [Comparative Compound 3, (4-isopropylphenyl) (p-tolyl)iodonium(4-(bicyclo[4.2.0]octa-1,3,5-trien-3-yl)-2,3,5,6-tetrfluorophenyl)tris(2,3,5,6-tetrafluoro-4-(trifluoromethyl)phenyl)borate, reference compound]	0.392	–
C=Cc1ccc(-c2c(F)c(F)c([B-](c3c(F)c(F)c(-c4ccc(C=C)cc4)c(F)c3F)(c3c(F)c(F)c(-c4ccc(C=C)cc4)c(F)c3F)c3c(F)c(F)c(-c4ccc(C=C)cc4)c(F)c3F)c(F)c2F)cc1.Cc1ccc([I+]c2ccc(C(C)C)cc2)cc1 [Comparative Compound 4, (4-isopropylphenyl) (p-tolyl)iodonium tetrakis(2,3,5,6-tetrafluoro-4′-vinyl-[1,1′-biphenyl]-4-yl) borate, reference compound]	0.467	Solubility in Acetone [2, 3]: Dissolved; Solubility in Dichloromethane [2, 4]: Dissolved; Solubility in Toluene [2, 5]: Insoluble
C=Cc1ccc(-c2cc(-c3ccc(C=C)cc3)cc(-c3c(F)c(F)c(-c4c(F)c(F)c([B-](c5c(F)c(F)c(C(F)(F)F)c(F)c5F)(c5c(F)c(F)c(C(F)(F)F)c(F)c5F)c5c(F)c(F)c(C(F)(F)F)c(F)c5F)c(F)c4F)c(F)c3F)c2)cc1.Cc1ccc([I+]c2ccc(C(C)C)cc2)cc1 [Compound 3, (4-isopropylphenyl) (p-tolyl)iodonium (2″,2′″,3″,13′″,5″,5′″,6″,6′″-octafluoro-4-vinyl-5′-(4-vinylphenyl)-[1,1′:3′,1″:4″,1′″-quarterphenyl]-4′″-yl)tris(2,3,5,6-tetrafluoro-4-(trifluoromethyl)phenyl)borate]	0.813	Solubility in Acetone [2]: Dissolved; Solubility in Dichloromethane [2]: Dissolved; Solubility in Toluene [2]: Dissolved
C=Cc1cc(C=C)cc(-c2c(F)c(F)c(-c3c(F)c(F)c([B-](c4c(F)c(F)c(C(F)(F)F)c(F)c4F)(c4c(F)c(F)c(C(F)(F)F)c(F)c4F)c4c(F)c(F)c(C(F)(F)F)c(F)c4F)c(F)c3F)c(F)c2F)c1 [Compound 5]	0.801	Solubility in Acetone [2, 3]: Dissolved; Solubility in Dichloromethane [2, 4]: Dissolved; Solubility in Toluene [2, 5]: Dissolved
C=Cc1ccc(-c2c(F)c(F)c(-c3c(F)c(F)c([B-](c4c(F)c(F)c(C(F)(F)F)c(F)c4F)(c4c(F)c(F)c(C(F)(F)F)c(F)c4F)c4c(F)c(F)c(C(F)(F)F)c(F)c4F)c(F)c3F)c(F)c2F)c2ccccc12 [Compound 7]	0.603	–
Fc1c(F)c(-c2c(F)c(F)c([B-](c3c(F)c(F)c(C(F)(F)F)c(F)c3F)(c3c(F)c(F)c(C(F)(F)F)c(F)c3F)c3c(F)c(F)c(C(F)(F)F)c(F)c3F)c(F)c2F)c(F)c(F)c1-c1ccc2c(c1)CC2 [Compound 8]	0.546	–
(4-isopropylphenyl) (p-tolyl)iodonium (2,3,5,6-tetrafluoro-4′-vinyl-[1,1′-biphenyl]-4-yl)tris(2,3,5,6-tetrafluoro-4-(trifluoromethyl)phenyl)borate [Compound 1]	0.802	–
